# Experimental data taken from US5272078A, “CDNA encoding the type I iodothyronine 5'deiodinase” (Brigham and Women's Hospital, priority 1992, dated 1993).
# Substitutions are numbered along the chain they refer to. pKi: −log10 of the molar value. Where “and” joins values, the source holds several entries; their conditions need not be identical. Equal values may be shown once. Read-outs that look alike come from different tables or passages of the source.
# Tests used:
# [1] = biological target: T1, Human Type I 5'-Deiodinase (Homo sapiens, UniProt P49895); assay: Kinetics of rT3 deiodination, enzyme transiently expressed in COS-7 cells; assay type: biochemical
# T1 construct: expressed in transfected cells; host or cells: COS-7 cells (cell sonicate)
# T1 sequence (P49895 1-249): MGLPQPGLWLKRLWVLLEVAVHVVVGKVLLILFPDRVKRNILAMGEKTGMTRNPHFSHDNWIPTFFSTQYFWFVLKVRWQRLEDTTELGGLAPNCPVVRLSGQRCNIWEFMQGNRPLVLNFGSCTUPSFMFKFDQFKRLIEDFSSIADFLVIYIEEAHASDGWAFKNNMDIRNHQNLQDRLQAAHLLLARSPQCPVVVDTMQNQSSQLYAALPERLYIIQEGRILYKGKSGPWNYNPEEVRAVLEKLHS
# Method: Cell sonicate protein concentration was approximately 12 mg ml^-1 by Biorad determination using gamma globulin as a standard.
# Incubations were for 30 minutes at 37° C. and ^125 I was quantitated as previously described (Berry, et al., Mol. Endocrinol. 4:743-748 (1990)).
# [2] = biological target: T2, human 5' deiodinase (Homo sapiens, UniProt P49895); assay: Affinity labelling with bromoacetyl T3, human enzyme; assay type: binding; set-up: expressed in transfected cells; host or cells: COS-7 cells (cell sonicate)
# T2 sequence (P49895 1-249): T1 sequence (P49895 1-249)
# Method: (§1) The final product in 2 ml of acidified 20% ethanol was diluted with 3 volumes of water and purified by chromatography on a column (2.5×0.8cm) of Sephadex LH-20 (Pharmacia). […] Densitometric quantitation of the autoradiographs was performed by a Molecular Dynamics computing densitometer (Sunnyvale, Calif.).
# [3] = biological target: T3, rat 5' deiodinase (Rattus norvegicus, UniProt P24389); assay: Affinity labelling with bromoacetyl T3, rat enzyme; assay type: binding
# T3 construct: the full length protein terminates at the UAG codon at nucleotide 778; expressed in transfected cells, vector CDM-8; cell sonicate
# T3 sequence (P24389 1-257): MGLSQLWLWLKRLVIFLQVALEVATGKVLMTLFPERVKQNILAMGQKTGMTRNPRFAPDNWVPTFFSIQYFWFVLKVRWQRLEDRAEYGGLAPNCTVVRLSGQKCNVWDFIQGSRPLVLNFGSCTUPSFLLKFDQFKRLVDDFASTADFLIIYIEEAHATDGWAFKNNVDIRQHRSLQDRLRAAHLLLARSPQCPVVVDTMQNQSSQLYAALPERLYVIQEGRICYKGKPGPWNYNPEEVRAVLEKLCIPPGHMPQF
# Method: as §1
# [4] = biological target: T4, 5' deiodinase activity (Rattus norvegicus, UniProt P24389); details: rats; cited from earlier work
# T4 construct: host or cells: rat, in vivo
# T4 sequence (P24389 1-257): T3 sequence (P24389 1-257)
# [5] = biological target: T5, Type I iodothyronine 5' deiodinase, TGA (selenocysteine-126) (Rattus norvegicus, UniProt P24389); assay: Sensitivity to gold thioglucose, wild type (TGA) G21 cDNA, JEG cell sonicates; assay type: biochemical; details: for Deiodinase Activity of JEG cell sonicates: 10 mM DTT, 300 nM 125I rT3, 30 min
# T5 construct: the full length protein terminates at the UAG codon at nucleotide 778; expressed in transfected cells; host or cells: JEG-3 human choriocarcinoma cells, vector CDM-8 (homogenates, microsomal fractions or sonicates)
# T5 sequence (P24389 1-257): T3 sequence (P24389 1-257)
# Text: (§2) Wild type (TGA) or cysteine mutant (TGT) G21 cDNA in CDM-8 was transfected into JEG-3 as described in Example III. […] 1β-D-Thioglucose (5 μm) had no effect on enzyme activity. 1.
# [6] = biological target: T6, Type I iodothyronine 5' deiodinase, TGT (cysteine-126) mutant (Rattus norvegicus, UniProt P24389, U126C); assay: Sensitivity to gold thioglucose, cysteine mutant (TGT) G21 cDNA, JEG cell sonicates; assay type: biochemical; details: for Deiodinase Activity of JEG cell sonicates: 10 mM DTT, 300 nM 125I rT3, 30 min
# T6 construct: expressed in transfected cells; host or cells: JEG-3 cells, vector CDM-8 (cell sonicate)
# T6 sequence (P24389 1-257 U126C): T3 sequence (P24389 1-257) with U126C
# Text: as §2
# [7] = test system: T4 to T3 conversion; details: cited from earlier work
# [8] = biological target: T2, human 5' deiodinase; details: with or without 0.5 mM PTU; 100 nM 125I-T4, 25 mM DTT, 16 hours
# Method: T4, T3 and I^- were separated by paper chromatography and identified by staining of chromatographed unlabelled standards. The ^125 I content of the products was quantitated by counting the paper strips in a gamma scintillation counter. All assays were performed in duplicate. Kinetic analyses were performed as previously described (Berry, et al., J. Biol. Chem. 266:14155-14158 (1991)) by drawing double reciprocal plots of deiodination rate vs. substrate concentration. […] Since the enzyme is not pure, all kinetic constants are apparent.
# [9] = biological target: T7, Liver Microsomal Human Type I 5'-Deiodinase (Homo sapiens, UniProt P49895); details: cited from earlier work
# T7 construct: those of the human liver microsomal enzyme; from tissue; host or cells: human liver microsomes
# T7 sequence (P49895 1-249): T1 sequence (P49895 1-249)
# [10] = biological target: T8, Type I 5' deiodinase (Rattus norvegicus, UniProt P24389); assay: rT3 deiodination by clone G21 enzyme expressed in transfected JEG-3 cells; assay type: biochemical; details: for mode of inhibition: rT3 as substrate
# T8 construct: the full length protein terminates at the UAG codon at nucleotide 778; expressed in transfected cells; host or cells: JEG-3 human choriocarcinoma cells, vector CDM-8 (homogenates, microsomal fractions or sonicates)
# T8 sequence (P24389 1-257): T3 sequence (P24389 1-257)
# Text: To verify that this clone encoded the Type I 5' deiodinase, it was expressed in JEG-3 human choriocarcinoma cells following DNA transfection.
# To confirm that this clone encoded Type I 5' deiodinase, it was expressed in JEG-3 human choriocarcinoma cells following DNA transfection.
# [11] = biological target: T9, Type I deiodinase (Rattus norvegicus, UniProt P24389); details: cited from earlier work
# T9 sequence (P24389 1-257): T3 sequence (P24389 1-257)
# [12] = biological target: T10, rat 5' deiodinase cysteine mutant (Rattus norvegicus, UniProt P24389, U126C); details: cited from earlier work
# T10 sequence (P24389 1-257 U126C): T3 sequence (P24389 1-257) with U126C
# [13] = PTU 100 μM, read-out: decrease in BrAcT3 labelling
compound,measurement,setting,value
"O[C@H](CS)[C@H](O)CS (racemic) [DTT, dithiothreitol]",Kb,[1]; apparent,5000 µM
O=C(CBr)NC(Cc1cc(I)c(Oc2ccc(O)c(I)c2)c(I)c1)C(=O)O (centres unmarked) [BrAcT3],BrAcT3 labelling of the ~28 kDa protein,[2]; excess cold BrAcT3 (364 nM),inhibited
same,BrAcT3 labelling of the ~28 kDa protein,[3]; excess cold BrAcT3 (364 nM),inhibited
gold,5' deiodinase activity after administration,[4],Inhibition
OC[C@H]1O[C@@H](S)[C@H](O)[C@@H](O)[C@@H]1O [1β-D-Thioglucose],effect on enzyme activity,[5]; 5 μm,no effect
gold thioglucose [GTG],Inhibition,[5]; GTG 1 nM,0%
same,Deiodinase Activity of JEG cell sonicates,[5]; GTG 1 nM,7.0 pmol rT3 min^-1 mg protein^-1
same,Inhibition,[5]; GTG 10 nM,43%
same,Deiodinase Activity of JEG cell sonicates,[5]; GTG 10 nM,4.0 pmol rT3 min^-1 mg protein^-1
same,Inhibition,"[5]; GTG 10 nM, listed as gold thioglucose",~ 50%
same,Inhibition,[5]; GTG 100 nM,95%
same,Deiodinase Activity of JEG cell sonicates,[5]; GTG 100 nM,0.95 pmol rT3 min^-1 mg protein^-1
same,BrAcT3 labelling of the ~28 kDa protein,[2]; 100 nM gold thioglucose,inhibited
same,pKi,"[1]; read-out: Ki (GTG · rT3), 10 mM DTT, competitive, apparent",8.33
same,BrAcT3 labelling of the ~28 kDa protein,[3]; 100 nM gold thioglucose,inhibited
same,sensitivity to inhibition compared with the native enzyme,[6],much less sensitive
same,Inhibition,[6]; GTG 10 nM,0%
same,Deiodinase Activity of JEG cell sonicates,[6]; GTG 10 nM,1.3 pmol rT3 min^-1 mg protein^-1
same,Inhibition,[6]; GTG 100 nM,13%
same,Deiodinase Activity of JEG cell sonicates,[6]; GTG 100 nM,1.1 pmol rT3 min^-1 mg protein^-1
"CCCc1cc(=O)[nH]c(=S)[nH]1 [PTU, propylthiouracil]",inhibition at 100 µM,[2]; [13],35 to 40%
same,131I release from T4,"[7]; 100 mg, euthyroid subjects",inhibition
same,T4 to T3 conversion,[7]; hyperthyroid patients,dose-related inhibition
same,"T4 to T3 conversion, sensitivity to PTU",[8],PTU-sensitive
same,pKi,"[1]; Ki (PTU · DTT), competitive with respect to DTT, apparent",7.85
same,pKi,"[1]; Ki (PTU · rT3), 10 mM DTT, uncompetitive inhibitor of rT3 deiodination, apparent",6.77
same,inhibition at 100 µM,[3]; [13],35 to 40%
same,pKi,[9]; read-out: Ki (PTU · DTT),7.00
same,pKi,"[9]; read-out: Ki (PTU · rT3), 5 mM DTT",6.55
same,inhibition at 0.5 µM,[10]; 0.5 μM PTU,> 50%
same,mode of inhibition,[10],competitive inhibitor of DTT
"N[C@@H](Cc1cc(I)c(Oc2cc(I)c(O)c(I)c2)c(I)c1)C(=O)O [T4, thyroxine]",BrAcT3 labelling of the ~28 kDa protein,[2]; T4 30 μM,does not inhibit
same,pKi,[1],5.21
same,inhibition at 30 µM,"[3]; T4 30 μM, read-out: reduction of BrAcT3 labelling",67%
same,mode of inhibition,[10],competitive inhibitor of rT3 deiodination
"N[C@@H](Cc1ccc(Oc2cc(I)c(O)c(I)c2)c(I)c1)C(=O)O [rT3, 3,3',5'-triiodothyronine]",BrAcT3 labelling of the ~28 kDa protein,[2]; rT3 3 μM and 10 μM,inhibited
same,Vmax (rT3),[1]; 10 mM DTT,63.2 ± 16.4 pmol/min/mg and 63.2 pmol/min/mg
same,Vmax/Km ratio for rT3 higher than for T4,[11],1000 fold
same,apparent Km of the cysteine mutant higher than wild type,[12],10 fold
same,BrAcT3 labelling of the ~28 kDa protein,[3]; rT3 3 μM and 10 μM,inhibited
same,Vmax (rT3),[9]; 5 mM DTT,128 to 242 pmol/min/mg
